# Laboratory results from patent US20240383913A1, “THIOPHENE RING COMPOUND, PREPARATION METHOD THEREFOR AND APPLICATION THEREOF” (CENTER FOR EXCELLENCE IN MOLECULAR CELL SCIENCE, CHINESE …, priority 2021, published 2024).
# Experiments:
# [1] = system: restraint-induced depression-like behaviors; assay: Tail suspension test after 5-hour restraint; assay type: in vivo, C57B6 male mice; conditions: for Immobility time (seconds), tail suspension test: 5 hour restraint
# Procedure: The experimental animals were C57B6 male mice, n=8 in each group. 5-hour restraint were used to develop depression-like behavioral representations of the mice, then the effects of the compounds on their “depression-like” behaviors were measured according to behavioral performance in tail suspension test and forced swimming test. The specific experimental procedures were as follows: Firstly, the mice were restrained using a mouse fixator for tail vein injection. During the restraint process, all movement abilities of the mice were restricted under the condition of introducing minimal pain to the mice. Compounds were administered intraperitoneally twice, before and after restraint, respectively. After compound administration, the mice returned to the cage to recover for 30 minutes. After 30 minutes recovery, the mice in different groups were subjected to tail suspension test or forced swimming test to measure their “depression-like” behaviors.
# Tail suspension test: mouse tails were fixed a cantilever arm on an iron rack using adhesive tape, and the mouse was maintained in a suspension position for 6 minutes. The first 2 minutes were the adaptation period and no data collection was performed. Subsequently, the mouse's immobility behavior was recorded intermittently for the remaining 4 minutes. The duration of immobility was measured to assess the level of behavioral despair in the mice. Data statistics were performed using Student-t-test analysis, *p<0.05, ** p<0.01, *** p<0.001, **** p<0.0001.
# dopamine D2 receptors = dopamine D2 receptors (Homo sapiens (Human), UniProt P14416); assay: Dopamine D2 receptor Gαi1 BRET (G protein trimer dissociation); assay type: cell-based; conditions: D2 receptor, G protein pathway;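 further: transfected cells co-expressing D2 receptor, Gαi1-Rluc, Gβ3 and Gγ9-GFP, BRET with coelenterazine 400a at 5 µM read as G protein trimer dissociation, graded drug concentrations in duplicate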
# 5-HT1A receptor = 5-HT1A receptor (Homo sapiens (Human), UniProt P08908); assay: 5-HT1A receptor Gαi1 BRET (G protein trimer dissociation); assay type: cell-based; conditions: 5-HT1A receptor, G protein pathway;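 further: cells transiently co-expressing 5-HT1A receptor, luciferase-tagged Gαi1, Gβ3 and GFP-tagged Gγ9, seeded in 96-well plates for BRET measurement of G protein signaling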
# Chain of 5-HT1A receptor (P08908 whole entry): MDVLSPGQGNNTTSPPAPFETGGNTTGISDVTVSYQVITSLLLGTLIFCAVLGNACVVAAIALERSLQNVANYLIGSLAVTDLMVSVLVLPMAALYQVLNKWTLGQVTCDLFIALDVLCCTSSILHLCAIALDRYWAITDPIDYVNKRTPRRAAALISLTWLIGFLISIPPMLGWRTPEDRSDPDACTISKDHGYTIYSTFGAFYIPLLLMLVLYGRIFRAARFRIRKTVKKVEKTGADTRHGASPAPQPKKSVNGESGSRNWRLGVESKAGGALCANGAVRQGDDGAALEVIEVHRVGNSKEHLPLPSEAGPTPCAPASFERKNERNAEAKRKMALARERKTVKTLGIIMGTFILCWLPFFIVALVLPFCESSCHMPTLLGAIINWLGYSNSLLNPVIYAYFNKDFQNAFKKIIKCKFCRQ
# Chain of dopamine D2 receptors (P14416 whole entry): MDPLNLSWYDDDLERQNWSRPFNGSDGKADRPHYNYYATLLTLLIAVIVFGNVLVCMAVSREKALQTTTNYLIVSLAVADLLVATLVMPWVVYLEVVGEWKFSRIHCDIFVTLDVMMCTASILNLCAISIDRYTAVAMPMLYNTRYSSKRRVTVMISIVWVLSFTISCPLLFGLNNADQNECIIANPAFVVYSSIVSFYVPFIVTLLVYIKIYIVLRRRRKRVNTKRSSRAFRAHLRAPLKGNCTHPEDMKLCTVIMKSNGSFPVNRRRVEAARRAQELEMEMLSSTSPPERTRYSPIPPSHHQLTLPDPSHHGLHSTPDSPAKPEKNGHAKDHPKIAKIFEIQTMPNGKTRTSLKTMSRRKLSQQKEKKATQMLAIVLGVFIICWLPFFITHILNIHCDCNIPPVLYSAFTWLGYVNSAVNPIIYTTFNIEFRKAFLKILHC
smiles,measurement,setting,value
"CN(C)C(=O)N[C@H]1CC[C@H](CCN2CCN3c4cccc5scc(c45)CC3C2)CC1 (single isomer, unassigned; (-)) [(−)-I-27]",Inhibition of restraint-induced depression-like behaviors,"[1]; 0.1 mg/kg and 0.025 mg/kg i.p., tail suspension and forced swimming tests",significantly inhibit
same,"Immobility time (seconds), tail suspension test",[1]; (−)-I-27 0.025 mg/kg i.p.,87.04 ± 7.69 s
same,"Immobility time (seconds), tail suspension test",[1]; (−)-I-27 0.1 mg/kg i.p.,54.13 ± 6.99 s
same,Gαi1 BRET (Emax %),dopamine D2 receptors,(72.04%)
same,EC50,dopamine D2 receptors; read-out: Gαi1 BRET EC50,3.76 nM
same,Gαi1 BRET (Emax %),5-HT1A receptor,(76%)
same,EC50,5-HT1A receptor; read-out: Gαi1 BRET EC50,166 nM
